Laboratory results as given in patent publication US20200346047A1, “METHOD AND KIT FOR HOME CONTROLLED OVARIAN STIMULATION FOR IN VITRO FERTILIZATION” (priority 2019, published 2020).
Values joined by “and” are separate entries in the source; they are usually repeats but may differ in a detail not shown here. Equal values may be shown once. Square brackets hold non-standard residues; d marks the D form. Peptide text beside a SMILES is read from it. d(hArg(Et2)) = CCN=C(NCC)NCCCC[C@@H](N)C(=O)O; hArg(Et2) = CCN=C(NCC)NCCCC[C@H](N)C(=O)O; dPhe(4-Cl) = N[C@H](Cc1ccc(Cl)cc1)C(=O)O; d2Nal = N[C@H](Cc1ccc2ccccc2c1)C(=O)O; d3Pal = N[C@H](Cc1cccnc1)C(=O)O

Columns and labels:
[1] = system: LH blood hormone level; experiment: LH blood level under home controlled ovarian hyperstimulation method with vaginal elagolix (Example 2); type: in vivo, female patients; details: lower dose of elagolix taken as a vaginal suppository instead of orally
Method: On day 9 of the menstrual cycle, the patient is directed to orally take 50 to 150 mg, preferably 100 mg, (one, two, or three 50 mg oral tablets) of clomiphene citrate and to either insert vaginally or take orally, depending on the patient's preference, a gonadotropin-releasing hormone (GnRH) antagonist such as elagolix (marketed as ORILISSA®), instead of the expensive injections of ganirelix acetate (GANIRELEX®) or cetrorelix acetate (marketed as CETROTIDE®) used routinely in conventional practices. A dose of 25 mg (⅛^th of a pill) up to 200 mg of elagolix (1 full pill), preferably 25 mg, will be used, with the dose being the same whether inserted vaginally or taken orally. Elagolix is a GnRH antagonist that is conventionally used in the treatment of pain associated with endometriosis in women, not for the treatment of infertility. By blocking the GnRH receptor, elagolix suppresses LH release by the pituitary gland and thus prevents LH surge. Ultimately, elagolix suppresses gonadal steroid production, thereby reducing circulating levels of sex hormones such as progesterone, estradiol, and testosterone. Elagolix is generally an oral medication (oral tablet), however in the present method, elagolix is a tablet taken mainly as a vaginal suppository, but may be taken orally based on the patient's preference. […]

[2] = system: LH blood hormone level; experiment: LH blood level under conventional GnRH antagonist injection protocol (Example 1); type: in vivo, female patients
Method: Five female patients were treated with a GnRH antagonist protocol requiring injections of medications.
One patient, patient no. 1, was injected with 150 Units of FSH on days 3 to 12; half a syringe of 150 mcg/0.5 mL of ganirelix acetate on days 11 and 12; and 50 mg of clomiphene citrate on days 3 to 12; and 2.5 mg of letrozole on days 3 to 7. Luteinizing hormone (LH) blood level was 4.3 mIU/mL on day 10 and dropped to 2 mIU/mL on day 12.
A second patient, patient no. 2, was injected with 75 Units of FSH on days 4 to 12 and 150 Units on day 13; half a syringe of 150 mcg/0.5 mL of ganirelix acetate on days 11 to 13; 50 mg of clomiphene citrate on days 10 to 12, and 2.5 mg of letrozole on days 3 to 7. Luteinizing hormone (LH) blood level was 12.0 mIU/mL on day 11 and dropped to 6.3 mIU/mL on day 13.
Three patients, numbered 3 to 5, were injected with 75, 150 and 225 Units of FSH, respectively, on days 4 to 12 and one third a syringe of 150 mcg/0.5 mL of ganirelix acetate on days 11 to 13. Patient no. 3 received 50 mg of clomiphene citrate on days 4 to 12, and 2.5 mg of letrozole on days 4 to 8. Patient no. 4 received 100 mg of clomiphene citrate and 2.5 mg of letrozole on days 4 to 8, and 50 mg of clomiphene citrate on days 9 to 11. Patient no. 5 received no clomiphene citrate or letrozole. Luteinizing hormone (LH) blood level was 12.0, 18.0 and 14.6 mIU/mL, respectively, on day 10 and dropped to 4.9, 16.0 and 14.1 mIU/mL, respectively, on day 12.
Table 2 below provides a comparison of the efficacy of conventional Ganirelex/Cetrotide injectables treatment for IVF in the five representative patients from Example 1 with the home controlled ovarian hyperstimulation method described herein in the five representative patients from Example 2.

Compound	effectiveness as GnRH antagonist in the patients [1]	LH blood hormone level AFTER medication intake ([2]; Example 1, one value per patient (patients 1-5), after ganirelix injections, listed as Conventional Ganielex/Cetrotide Injectables)	LH blood hormone level BEFORE medication intake ([2]; Example 1, one value per patient (patients 1-5), before ganirelix injections, listed as Conventional Ganielex/Cetrotide Injectables)	% Drop in blood LH hormone level ([2]; Example 1, one value per patient (patients 1-5), listed as Conventional Ganielex/Cetrotide Injectables) [%]	Luteinizing hormone (LH) blood level ([2]; patient no. 1, day 10, half a syringe of 150 mcg/0.5 mL ganirelix acetate on days 11 and 12) [mIU/mL]	drop in LH blood hormone levels ([2]; patient no. 1, day 10 to day 12) [%]	Luteinizing hormone (LH) blood level ([2]; patient no. 1, day 12, half a syringe of 150 mcg/0.5 mL ganirelix acetate on days 11 and 12) [mIU/mL]	Luteinizing hormone (LH) blood level ([2]; patient no. 2, day 11, half a syringe of 150 mcg/0.5 mL ganirelix acetate on days 11 to 13) [mIU/mL]	drop in LH blood hormone levels ([2]; patient no. 2, day 11 to day 13) [%]	Luteinizing hormone (LH) blood level ([2]; patient no. 2, day 13, half a syringe of 150 mcg/0.5 mL ganirelix acetate on days 11 to 13) [mIU/mL]	Luteinizing hormone (LH) blood level ([2]; patient no. 3, day 10, one third a syringe of 150 mcg/0.5 mL ganirelix acetate on days 11 to 13) [mIU/mL]	drop in LH blood hormone levels ([2]; patient no. 3, day 10 to day 12) [%]	Luteinizing hormone (LH) blood level ([2]; patient no. 3, day 12, one third a syringe of 150 mcg/0.5 mL ganirelix acetate on days 11 to 13) [mIU/mL]	Luteinizing hormone (LH) blood level ([2]; patient no. 4, day 10, one third a syringe of 150 mcg/0.5 mL ganirelix acetate on days 11 to 13) [mIU/mL]	drop in LH blood hormone levels ([2]; patient no. 4, day 10 to day 12) [%]	Luteinizing hormone (LH) blood level ([2]; patient no. 4, day 12, one third a syringe of 150 mcg/0.5 mL ganirelix acetate on days 11 to 13) [mIU/mL]	Luteinizing hormone (LH) blood level ([2]; patient no. 5, day 10, one third a syringe of 150 mcg/0.5 mL ganirelix acetate on days 11 to 13, no clomiphene citrate or letrozole) [mIU/mL]	drop in LH blood hormone levels ([2]; patient no. 5, day 10 to day 12) [%]	Luteinizing hormone (LH) blood level ([2]; patient no. 5, day 12, one third a syringe of 150 mcg/0.5 mL ganirelix acetate on days 11 to 13, no clomiphene citrate or letrozole) [mIU/mL]
COc1cccc(-c2c(C)n(Cc3c(F)cccc3C(F)(F)F)c(=O)n(C[C@H](NCCCC(=O)O)c3ccccc3)c2=O)c1F [elagolix]	effective GnRH antagonist																		
CCN=C(NCC)NCCCC[C@H](NC(=O)[C@H](CC(C)C)NC(=O)[C@@H](CCCCNC(=NCC)NCC)NC(=O)[C@H](Cc1ccc(O)cc1)NC(=O)[C@H](CO)NC(=O)[C@@H](Cc1cccnc1)NC(=O)[C@@H](Cc1ccc(Cl)cc1)NC(=O)[C@@H](Cc1ccc2ccccc2c1)NC(C)=O)C(=O)N1CCC[C@H]1C(=O)N[C@H](C)C(N)=O [Ganirelex, ganirelix acetate] (Ac-[d2Nal][dPhe(4-Cl)][d3Pal]SY[d(hArg(Et2))]L[hArg(Et2)]P[dA]-NH2)		2.0 mIU/mL and 6.3 mIU/mL and 4.9 mIU/mL and 16.0 mIU/mL	4.3 mIU/mL and 12.0 mIU/mL (2×) and 18.0 mIU/mL	3.4	4.3	53.5	2	12.0	47.5	6.3	12.0	59.25	4.9	18.0	11.1	16.0	14.6	3.4	14.1
